Test results reported in patent US20250099508A1, “SYSTEMS, CELL LINES AND METHODS OF PRODUCING AND USING THE SAME” (THE REGENTS OF THE UNIVERSITY OF CALIFORNIA, priority 2022, published 2025).

Legend:
[1] = test system: hESC-derived stage 2 enteric ganglioid NO neurons; settings: cFOS flow cytometry, cultures treated with epinephrine
[2] = test system: enteric ganglioid neurons; settings: MEA neuronal firing measurements
mouse colon = test: Ex vivo colonic motility assay (organ bath, GIMM); settings: for CMMC intervals at the 75th percentile relative to the untreated condition: five consecutive 10-min acquisitions, mouse colon ex vivo
EGFRs = settings: cited from earlier work
PDGFRs = settings: cited from earlier work
VEGFRs = settings: cited from earlier work
[3] = test system: stage 1 NOS1::GFP enteric ganglioids; test: NO neuron induction in stage 1 enteric ganglioids measured by flow cytometry (NOS1::GFP); assay type: cell-based, human; settings: for NO neuron induction / NO neuron proportions: RTK ligand treatment, stage 1 enteric ganglioids
Source text: (§1) To evaluate the potential of hPSC-derived cultures to model human ENS development, we set out to define the mechanism of NO neuron specification in vitro. Searching for pathways that regulate NO neuron differentiation, we performed a high-throughput small molecule screen. Identifying distinct pathways and chemical modulators that promote NO neuron induction could provide insights on NO neuron development and offer a strategy for the derivation of NO neuron enriched ENS cultures. • To identify compounds that induce NO neuron differentiation, we treated enteric crestospheres with 1694 compounds in the Selleck inhibitor library™ and identified 12 hit compounds that increased the proportion of NOS1^+ neurons by at least eight folds (FIG. 6A, FIGS. S25A and B). FIG. S25 data not shown, but it describes that small molecule high-throughput screening identifies compounds that enrich NO neurons in hESC-derived ENS cultures. […] After clustering the predicted protein targets, common patterns emerged for a subset of compounds.
To determine the mechanism by which PP121 induced NO neuron enrichment in ganglioids, we used a combination of pharmacological and genetic approaches. […] Our crestosphere snRNA-seq analysis confirmed the expression of PDGFRA, PDGFRB, ERBB2 and ERBB3 while the mRNA for VEGFRs were not detectable (FIG. 6L). We evaluated the induction efficiency of NO neurons in response to PDGF (PDGFR agonist), sunitinib (PDGFR and VEGFR antagonist), NRG1 (ERBBs agonist) and sapitinib (ERBBs antagonist) (FIG. 6M). […] To genetically confirm the role of PDGFR signaling in NO neuron induction, we used CRISPR-Cas9 to knock-out PDGFRA and PDGFRB in our enteric crestospheres and analyzed the percentage of NO neurons in stage 1 ganglioids. NO neurons were […] in both PDGFRA and PDGFRB knock-out cultures further confirming the PP121 mechanism of action (FIGS. 6O and P).

[4] = test system: H9 hESC-derived enteric crestospheres (NOS1+ neurons); test: High-throughput screening to identify compounds that enrich NO neurons; assay type: cell-based, human; settings: 1694 compounds, 1 μM, D15-D20, NOS1 staining at day 40
Source text: as §1
Day 15 H9 hESC-derived enteric crestospheres were dissociated into single cells (accutase, Stemcell Technologies, 07920, 30 min, 37° C.), resuspended in ENC medium and were transferred into 384-well plates. Plates were incubated for 2 hours for cells to attach. […]

[5] = test system: stage 1 enteric ganglioids; test: PP121 vs control gene expression correlation (snRNA-seq); assay type: cell-based, human
Source text: To compare PP121 treated and untreated stage 1 enteric ganglioids in single cell resolution, we performed snRNA-seq and combined both datasets. […] FIG. S26 data not shown, but it describes PP121 treatment enriches NO neurons without affecting their overall cellular diversity.
To compare the gene expression of control and PP121 treated cell types, neuronal subtypes and NO neuron subtypes, a subset dataset of each cell type and subtype annotation was first created. For each subset, the non-imputed average expression of all genes was then calculated for the control and PP121 treated cells using the “AverageExpression” function and natural log transformed for plotting. R^2 values comparing the control and PP121 natural log expression values were calculated from linear modeling using the “y ˜x” formula. cFOS expression screening

[6] = 6-min treatment, all five replicates

Compound: CNC[C@H](O)c1ccc(O)c(O)c1 [Epinephrine, epinephrine]
- neuronal cFOS expression [1]: induced neuronal cFOS expression
- electrical firing of ganglioid neurons [2]: increased electrical firing

Compound: Cc1cccc(C#Cc2ccccc2)n1 [MPEP]
- CMMC intervals at the 75th percentile relative to the untreated condition (mouse colon): promising effects on lowering CMMC intervals

Compound: Nc1ncnc2c1c(-c1cnc3[nH]ccc3c1)nn2C1CCCC1 [PP121]
- inhibitory activity on EGFRs (EGFRs): known inhibitory activity
- inhibitory activity on PDGFRs (PDGFRs): known inhibitory activity
- inhibitory activity on VEGFRs (VEGFRs): known inhibitory activity
- NOS1::GFP induction efficiency by treatment window ([3]; five-day treatment at various time points, GFP signal in stage 1 ganglioids): highest induction efficiency for cells treated during day 15-20
- NO neuron induction efficiency, dose dependence ([3]; flow cytometry): dose-dependent effect
- increase of the proportion of NOS1+ neurons relative to vehicle (DMSO) [4]: highest % NOS1^+ fold increase in this subset of compounds
- abundance of neuronal subtypes ([5]; merged control and PP121 treated neurons, snRNA-seq): enriched cultures for neuronal subtypes EN D and H
- abundance of nitrergic neuron subtypes ([5]; merged control and PP121 treated nitrergic neurons): enrichment for Nitrergic B

Compound: O=C1CCc2ccc(OCCCCN3CCN(c4cccc(Cl)c4Cl)CC3)cc2N1 [aripiprazole]
- CMMC intervals at the 75th percentile relative to the untreated condition (mouse colon): promising effects on lowering CMMC intervals

Compound: Cc1cccc([C@H](C)c2cnc[nH]2)c1C [dexmedetomidine]
- average duration of LCEs (mouse colon; [6]): increasing trend in their average duration
- total number of longitudinal contractile events (LCEs) (mouse colon; [6]): decrease in the total number of LCEs
- effects on LCEs after the drug removal (mouse colon; Krebs wash after drug): reversed after the drug removal
- effects on LCEs with L-NAME co-treatment (mouse colon; L-NAME co-treatment): blocked by L-NAME co-treatment
- effect on CMMC intervals with simultaneous L-NAME (mouse colon; dexmedetomidine+L-NAME simultaneously): absent
- CMMC intervals at the 75th percentile relative to the untreated condition (mouse colon): promising effects on lowering CMMC intervals
- CMMC intervals (mouse colon; sequential 6-min acquisitions, five sample pairs, drug alone): decreased CMMC intervals in four out of five colon samples
- slow waves (SW) (mouse colon; sequential drug treatment): not affected

Compound: O=C1CCC[C@@H]2[C@H]3CCCN4CCC[C@@H](CN12)[C@@H]34 [matrine]
- CMMC intervals at the 75th percentile relative to the untreated condition (mouse colon): promising effects on lowering CMMC intervals

Compound: CNC(=O)CN1CCC(Oc2cc3c(Nc4cccc(Cl)c4F)ncnc3cc2OC)CC1 [sapitinib]
- NO neuron induction / NO neuron proportions [3]: no significant effect

Compound: PDGF
- NO neuron induction / NO neuron proportions [3]: lower
